Assay results: PubChem BioAssay (NCI)
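Following 48 hours of exposure in 96-well plates, responses at five concentrations were used to interpolate endpoints linearly. Definition used: TGI = concentration required for complete inhibition of growth.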

How the values were obtained:
Experiment in all cases: NCI-60 cell line screen, 48 h
OVCAR-4 ovarian = test system: OVCAR-4 ovarian
UACC-62 melanoma = test system: UACC-62 melanoma
NCI-H23 lung = test system: NCI-H23 lung
A549 NSCLC = test system: A549 NSCLC
M14 melanoma = test system: M14 melanoma
RXF-631 renal = test system: RXF-631 renal
SK-MEL-5 melanoma = test system: SK-MEL-5 melanoma
SNB-78 CNS = test system: SNB-78 CNS
CCRF-CEM leukemia = test system: CCRF-CEM leukemia
HT29 colon = test system: HT29 colon
SW-620 colon = test system: SW-620 colon
TK-10 renal = test system: TK-10 renal
OVCAR-8 ovarian = test system: OVCAR-8 ovarian
SF-539 CNS = test system: SF-539 CNS
IGROV1 ovarian = test system: IGROV1 ovarian
RXF 393 renal = test system: RXF 393 renal
DLD-1 colon = test system: DLD-1 colon
SNB-19 CNS = test system: SNB-19 CNS
U251 CNS = test system: U251 CNS
M19-MEL melanoma = test system: M19-MEL melanoma
MOLT-4 leukemia = test system: MOLT-4 leukemia
K-562 leukemia = test system: K-562 leukemia
OVCAR-3 ovarian = test system: OVCAR-3 ovarian
COLO 205 colon = test system: COLO 205 colon
NCI-H460 lung = test system: NCI-H460 lung
ACHN renal = test system: ACHN renal
KM12 colon = test system: KM12 colon
HCC-2998 colon = test system: HCC-2998 colon
UACC-257 melanoma = test system: UACC-257 melanoma
LXFL 529 NSCLC = test system: LXFL 529 NSCLC
786-0 renal = test system: 786-0 renal
A498 renal = test system: A498 renal
SR leukemia = test system: SR leukemia
OVCAR-5 ovarian = test system: OVCAR-5 ovarian
EKVX NSCLC = test system: EKVX NSCLC
KM20L2 colon = test system: KM20L2 colon
HL-60(TB) leukemia = test system: HL-60(TB) leukemia
HCT-15 colon = test system: HCT-15 colon
SF-295 CNS = test system: SF-295 CNS
UO-31 renal = test system: UO-31 renal
SK-MEL-2 melanoma = test system: SK-MEL-2 melanoma
HOP-92 NSCLC = test system: HOP-92 NSCLC
HCT-116 colon = test system: HCT-116 colon
SF-268 CNS = test system: SF-268 CNS
SN12C renal = test system: SN12C renal
MALME-3M melanoma = test system: MALME-3M melanoma
HOP-18 NSCLC = test system: HOP-18 NSCLC
SK-OV-3 ovarian = test system: SK-OV-3 ovarian
RPMI-8226 leukemia = test system: RPMI-8226 leukemia
CAKI-1 renal = test system: CAKI-1 renal
DMS 273 small cell lung = test system: DMS 273 small cell lung
NCI-H522 lung = test system: NCI-H522 lung
DMS 114 small cell lung = test system: DMS 114 small cell lung
HOP-62 NSCLC = test system: HOP-62 NSCLC
SNB-75 CNS = test system: SNB-75 CNS
SK-MEL-28 melanoma = test system: SK-MEL-28 melanoma
NCI-H226 lung = test system: NCI-H226 lung
LOX IMVI melanoma = test system: LOX IMVI melanoma

In the case of `CC/C(CC(=O)CCC(=O)Nc1c(C)cccc1C)=N\NC(=O)NN`, the TGI (OVCAR-4 ovarian) is reported as > 100 µM, the TGI (UACC-62 melanoma) is reported as > 100 µM and the TGI (NCI-H23 lung) is reported as > 100 µM. For the same compound, the TGI (A549 NSCLC) was > 100 µM, the TGI (M14 melanoma) was > 100 µM and the TGI (RXF-631 renal) was > 100 µM. For the same compound, the TGI (SK-MEL-5 melanoma) was > 100 µM, the TGI (SNB-78 CNS) was > 100 µM and the TGI (CCRF-CEM leukemia) was > 100 µM. The TGI (HT29 colon) was > 100 µM, the TGI (SW-620 colon) was > 100 µM and the TGI (TK-10 renal) was > 100 µM. For the same compound, the TGI (OVCAR-8 ovarian) was > 100 µM, the TGI (SF-539 CNS) was > 100 µM and the TGI (IGROV1 ovarian) was > 100 µM. For the same compound, the TGI (RXF 393 renal) was > 100 µM, the TGI (DLD-1 colon) was > 100 µM and the TGI (SNB-19 CNS) was > 100 µM. For the same compound, the TGI (U251 CNS) was > 100 µM, the TGI (M19-MEL melanoma) was > 100 µM and the TGI (MOLT-4 leukemia) was > 100 µM. The TGI (K-562 leukemia) was > 100 µM, the TGI (OVCAR-3 ovarian) was > 100 µM and the TGI (COLO 205 colon) was > 100 µM. For the same compound, the TGI (NCI-H460 lung) was > 100 µM, the TGI (ACHN renal) was > 100 µM and the TGI (KM12 colon) was > 100 µM. For the same compound, the TGI (HCC-2998 colon) was > 100 µM, the TGI (UACC-257 melanoma) was > 100 µM and the TGI (LXFL 529 NSCLC) was > 100 µM. For the same compound, the TGI (786-0 renal) was > 100 µM, the TGI (A498 renal) was > 100 µM and the TGI (SR leukemia) was > 100 µM. The TGI (OVCAR-5 ovarian) was > 100 µM, the TGI (EKVX NSCLC) was > 100 µM and the TGI (KM20L2 colon) was > 100 µM. The TGI (HL-60(TB) leukemia) was > 100 µM, the TGI (HCT-15 colon) was > 100 µM and the TGI (SF-295 CNS) was > 100 µM. For the same compound, the TGI (UO-31 renal) was > 100 µM, the TGI (SK-MEL-2 melanoma) was > 100 µM and the TGI (HOP-92 NSCLC) was > 100 µM. The TGI (HCT-116 colon) was > 100 µM, the TGI (SF-268 CNS) was > 100 µM and the TGI (SN12C renal) was > 100 µM. The TGI (MALME-3M melanoma) was > 100 µM and the TGI (HOP-18 NSCLC) was > 100 µM.

For `Cc1ccc(S(=O)(=O)N/N=C(/CC(=O)c2c(C)n([O-])c3ccccc3[n+]2=O)C(=O)Nc2ccc(C)c(C)c2)cc1`, the TGI (OVCAR-4 ovarian) was > 100 µM, the TGI (UACC-62 melanoma) was > 100 µM and the TGI (NCI-H23 lung) was > 100 µM. For the same compound, the TGI (A549 NSCLC) was > 100 µM, the TGI (M14 melanoma) was > 100 µM and the TGI (RXF-631 renal) was > 100 µM. For the same compound, the TGI (SK-OV-3 ovarian) was > 100 µM, the TGI (SNB-78 CNS) was > 100 µM and the TGI (HT29 colon) was > 100 µM. The TGI (SW-620 colon) was > 100 µM, the TGI (RPMI-8226 leukemia) was > 100 µM and the TGI (SF-539 CNS) was > 100 µM. The TGI (IGROV1 ovarian) was > 100 µM, the TGI (RXF 393 renal) was > 100 µM and the TGI (DLD-1 colon) was > 100 µM. The TGI (CAKI-1 renal) was > 100 µM, the TGI (SNB-19 CNS) was > 100 µM and the TGI (DMS 273 small cell lung) was > 100 µM. For the same compound, the TGI (U251 CNS) was > 100 µM, the TGI (M19-MEL melanoma) was 42.6 µM and the TGI (NCI-H522 lung) was > 100 µM. For the same compound, the TGI (OVCAR-3 ovarian) was 63.1 µM, the TGI (COLO 205 colon) was > 100 µM and the TGI (NCI-H460 lung) was > 100 µM. The TGI (ACHN renal) was > 100 µM, the TGI (KM12 colon) was > 100 µM and the TGI (HCC-2998 colon) was > 100 µM. For the same compound, the TGI (UACC-257 melanoma) was > 100 µM, the TGI (DMS 114 small cell lung) was 67.2 µM and the TGI (LXFL 529 NSCLC) was > 100 µM. The TGI (786-0 renal) was > 100 µM, the TGI (A498 renal) was > 100 µM and the TGI (OVCAR-5 ovarian) was > 100 µM. The TGI (EKVX NSCLC) was > 100 µM, the TGI (HOP-62 NSCLC) was > 100 µM and the TGI (KM20L2 colon) was > 100 µM. For the same compound, the TGI (HCT-15 colon) was > 100 µM, the TGI (SF-295 CNS) was > 100 µM and the TGI (UO-31 renal) was > 100 µM. For the same compound, the TGI (SK-MEL-2 melanoma) was > 100 µM, the TGI (HCT-116 colon) was > 100 µM and the TGI (SF-268 CNS) was > 100 µM. The TGI (SN12C renal) was > 100 µM, the TGI (SNB-75 CNS) was > 100 µM and the TGI (MALME-3M melanoma) was > 100 µM. The TGI (SK-MEL-28 melanoma) was > 100 µM, the TGI (HOP-18 NSCLC) was > 100 µM and the TGI (NCI-H226 lung) was > 100 µM.

In the case of `C[N+]1(C)C/C(=C/c2ccc(F)cc2)C(=O)/C(=C\c2ccc(F)cc2)C1`, the TGI (OVCAR-4 ovarian) is reported as > 100 µM, the TGI (UACC-62 melanoma) is reported as 33.5 µM and the TGI (NCI-H23 lung) is reported as > 100 µM. The TGI (A549 NSCLC) was > 100 µM, the TGI (M14 melanoma) was > 100 µM and the TGI (RXF-631 renal) was > 100 µM. The TGI (SK-OV-3 ovarian) was > 100 µM, the TGI (SNB-78 CNS) was > 100 µM and the TGI (CCRF-CEM leukemia) was 68.5 µM. For the same compound, the TGI (SW-620 colon) was > 100 µM, the TGI (RPMI-8226 leukemia) was 57.8 µM and the TGI (TK-10 renal) was > 100 µM. The TGI (OVCAR-8 ovarian) was > 100 µM, the TGI (SF-539 CNS) was > 100 µM and the TGI (IGROV1 ovarian) was 70.1 µM. The TGI (RXF 393 renal) was > 100 µM, the TGI (DLD-1 colon) was > 100 µM and the TGI (SNB-19 CNS) was > 100 µM. The TGI (DMS 273 small cell lung) was 86.2 µM, the TGI (U251 CNS) was 42.7 µM and the TGI (M19-MEL melanoma) was > 100 µM. For the same compound, the TGI (MOLT-4 leukemia) was 45.5 µM, the TGI (K-562 leukemia) was > 100 µM and the TGI (NCI-H522 lung) was 36.9 µM. For the same compound, the TGI (OVCAR-3 ovarian) was > 100 µM, the TGI (COLO 205 colon) was > 100 µM and the TGI (NCI-H460 lung) was > 100 µM. For the same compound, the TGI (ACHN renal) was > 100 µM, the TGI (KM12 colon) was > 100 µM and the TGI (HCC-2998 colon) was > 100 µM. For the same compound, the TGI (UACC-257 melanoma) was > 100 µM, the TGI (DMS 114 small cell lung) was > 100 µM and the TGI (LXFL 529 NSCLC) was > 100 µM. For the same compound, the TGI (786-0 renal) was > 100 µM, the TGI (A498 renal) was > 100 µM and the TGI (OVCAR-5 ovarian) was > 100 µM. The TGI (LOX IMVI melanoma) was > 100 µM, the TGI (EKVX NSCLC) was > 100 µM and the TGI (HOP-62 NSCLC) was > 100 µM. For the same compound, the TGI (KM20L2 colon) was > 100 µM, the TGI (HL-60(TB) leukemia) was 50.3 µM and the TGI (HCT-15 colon) was > 100 µM. The TGI (SF-295 CNS) was > 100 µM, the TGI (UO-31 renal) was > 100 µM and the TGI (SK-MEL-2 melanoma) was > 100 µM. For the same compound, the TGI (HOP-92 NSCLC) was > 100 µM, the TGI (HCT-116 colon) was > 100 µM and the TGI (SF-268 CNS) was > 100 µM. The TGI (SN12C renal) was 11.9 µM, the TGI (SNB-75 CNS) was > 100 µM and the TGI (MALME-3M melanoma) was > 100 µM. The TGI (SK-MEL-28 melanoma) was 40.8 µM and the TGI (HOP-18 NSCLC) was > 100 µM.
